Test results reported in patent US20250163051A1, “PYRIMIDO AROMATIC RING COMPOUND AND USE THEREOF IN DRUG” (SUNSHINE LAKE PHARMA CO., LTD., priority 2022, published 2025).

What was measured:
hTLR8 = molecular target: T1, hTLR8 (Homo sapiens, UniProt Q9NR97); assay: Agonistic activity on human TLR8 in HEK-Blue hTLR8 cells (QUANTI-Blue); assay type: cell-based; settings: 24 h incubation, OD650, read-out: hTLR 8 EC50
T1 construct: expressed in transfected cells; host or cells: HEK-Blue hTLR8 cells
T1 sequence (Q9NR97 27-1041): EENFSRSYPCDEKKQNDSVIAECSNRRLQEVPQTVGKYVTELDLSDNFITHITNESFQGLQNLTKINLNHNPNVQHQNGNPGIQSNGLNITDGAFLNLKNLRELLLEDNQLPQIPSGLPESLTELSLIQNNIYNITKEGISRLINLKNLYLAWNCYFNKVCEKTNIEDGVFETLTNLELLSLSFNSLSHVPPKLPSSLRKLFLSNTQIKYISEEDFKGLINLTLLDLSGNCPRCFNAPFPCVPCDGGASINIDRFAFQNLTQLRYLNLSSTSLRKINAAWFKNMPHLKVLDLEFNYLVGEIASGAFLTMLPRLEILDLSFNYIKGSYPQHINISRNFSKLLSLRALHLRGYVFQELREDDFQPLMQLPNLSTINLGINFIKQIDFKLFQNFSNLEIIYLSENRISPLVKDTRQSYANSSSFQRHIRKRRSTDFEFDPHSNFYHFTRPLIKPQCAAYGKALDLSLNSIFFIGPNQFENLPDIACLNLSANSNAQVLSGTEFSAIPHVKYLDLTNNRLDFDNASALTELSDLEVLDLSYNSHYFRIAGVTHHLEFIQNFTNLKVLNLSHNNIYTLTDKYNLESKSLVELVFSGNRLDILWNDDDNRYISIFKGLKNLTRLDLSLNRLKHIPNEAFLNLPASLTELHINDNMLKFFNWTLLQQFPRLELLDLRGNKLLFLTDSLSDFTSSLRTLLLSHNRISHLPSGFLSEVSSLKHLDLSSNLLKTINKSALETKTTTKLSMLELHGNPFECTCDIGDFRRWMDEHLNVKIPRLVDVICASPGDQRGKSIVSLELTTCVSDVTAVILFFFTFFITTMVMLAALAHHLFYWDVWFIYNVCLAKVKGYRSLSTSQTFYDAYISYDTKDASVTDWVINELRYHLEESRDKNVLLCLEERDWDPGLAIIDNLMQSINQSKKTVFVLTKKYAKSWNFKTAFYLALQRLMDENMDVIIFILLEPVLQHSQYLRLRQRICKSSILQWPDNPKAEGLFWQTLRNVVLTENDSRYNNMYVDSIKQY

CYP1A2 = assay: Induction of CYP1A2 in frozen human hepatocytes; assay type: in vitro ADME; settings: 72 h induction, concentration and readout not stated
Description: (§1) Experimental purpose: Using frozen human hepatocytes as the test system, the induction effects of the test substances on CYP1A2, CYP2B6 and CYP3A4 were evaluated from two aspects of enzyme activity and mRNA level.
(§2) Experimental method: 24 hours after cell plating, induction was started by adding medium containing the test compound (test concentrations were 10, 1, and 0.1 μM), and fresh drug-containing medium was replaced every 24 hours. After 72 hours of induction, the medium was replaced with medium containing CYP1A2, CYP2B6, and CYP3A4 specific substrates for 30 minutes of incubation. 100 μL was taken for treatment, and the labeled metabolites of the substrates were detected to evaluate the enzyme activity level. Finally, the cells were lysed and reverse transcribed, and the expression levels of CYP1A2, CYP2B6 and CYP3A4 genes in the cells were evaluated by real-time quantitative PCR.
(§3) The induction fold of the test compound compared with the blank control and the induction percentage of the test compound compared with the positive control were used as the basis for evaluating the induction potential of the test compound. Among them, the positive control for CYP1A2 is Omeprazole; the positive control for CYP2B6 is Phenobarbital; the positive control for CYP3A4 is Rifampicin.

CYP3A4 = assay: Induction of CYP3A4 in frozen human hepatocytes; assay type: in vitro ADME; settings: 72 h induction, concentration and readout not stated; for CYP3A4 Induction percentage relative to positive control (%): positive control Rifampicin
Description: as §1, §2, §3

hERG channel = molecular target: T2, hERG channel (Homo sapiens, UniProt Q12809); assay: hERG channel current in HEK293 cells, automated patch clamp; assay type: cell-based; settings: HEK-293 cells stably expressing hERG, whole-cell patch clamp, 0.3-30 μM
T2 construct: expressed in transfected cells; host or cells: HEK-293 cells stably expressing hERG
Description: Test 2: Detection of the Effect of Compounds on hERG Channel Currents Stably Expressed in HEK293 Cells Using Automated Patch Clamp
Experimental purpose: The concentration-effect relationship of the blocking effect of the compounds on hERG channels was determined using the patch clamp technique and HEK-293 cells stably expressing hERG channels to evaluate their risk of inhibitory effect on cardiac hERG potassium channels.
Experimental method: hERG cells were clamped using the patch clamp technique to form a high-resistance seal and then the membrane was broken. The whole-cell recording mode was used to record the hERG current. Each drug concentration was set to be administered twice for at least 5 minutes. The test concentrations were 0.3 μM, 1 μM, 3 μM, 10 μM and 30 μM, and the changes of the test compounds on hERG current were observed.

T2 sequence (Q12809 whole entry): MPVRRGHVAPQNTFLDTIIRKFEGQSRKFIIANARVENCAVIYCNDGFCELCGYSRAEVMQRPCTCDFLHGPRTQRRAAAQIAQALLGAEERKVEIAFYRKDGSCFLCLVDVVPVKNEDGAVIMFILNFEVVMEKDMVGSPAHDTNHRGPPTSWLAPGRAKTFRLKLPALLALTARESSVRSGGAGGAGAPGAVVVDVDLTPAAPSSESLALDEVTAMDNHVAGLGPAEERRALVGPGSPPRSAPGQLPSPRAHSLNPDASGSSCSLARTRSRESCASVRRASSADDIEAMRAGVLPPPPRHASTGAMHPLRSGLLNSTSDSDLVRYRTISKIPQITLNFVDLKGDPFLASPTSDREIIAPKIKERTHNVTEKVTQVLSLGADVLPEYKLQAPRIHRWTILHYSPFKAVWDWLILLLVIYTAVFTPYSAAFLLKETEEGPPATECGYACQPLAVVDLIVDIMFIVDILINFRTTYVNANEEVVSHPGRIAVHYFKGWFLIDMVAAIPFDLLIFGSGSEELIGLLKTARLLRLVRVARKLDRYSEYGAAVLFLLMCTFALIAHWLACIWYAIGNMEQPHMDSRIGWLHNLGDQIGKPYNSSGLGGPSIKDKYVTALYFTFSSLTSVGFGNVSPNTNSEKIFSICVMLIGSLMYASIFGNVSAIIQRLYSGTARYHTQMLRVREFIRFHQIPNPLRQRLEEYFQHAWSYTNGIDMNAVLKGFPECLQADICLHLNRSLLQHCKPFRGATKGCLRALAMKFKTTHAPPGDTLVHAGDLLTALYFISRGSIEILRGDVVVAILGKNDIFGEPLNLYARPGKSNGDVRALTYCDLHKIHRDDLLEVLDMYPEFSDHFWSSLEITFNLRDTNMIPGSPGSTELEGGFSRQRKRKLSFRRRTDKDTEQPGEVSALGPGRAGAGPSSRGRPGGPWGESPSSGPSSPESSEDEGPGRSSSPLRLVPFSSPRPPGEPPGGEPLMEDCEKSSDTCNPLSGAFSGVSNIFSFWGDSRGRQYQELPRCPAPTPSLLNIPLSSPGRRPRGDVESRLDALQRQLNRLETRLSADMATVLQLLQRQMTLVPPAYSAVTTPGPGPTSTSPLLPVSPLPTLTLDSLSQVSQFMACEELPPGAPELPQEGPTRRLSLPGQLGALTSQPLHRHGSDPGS

EC50 (hTLR8) [nM]	CYP1A2 Induction fold relative to blank control (CYP1A2)	CYP3A4 Induction fold relative to blank control (CYP3A4)	CYP3A4 Induction percentage relative to positive control (%) (CYP3A4)	Structure (SMILES)	IC50 (hERG channel) [µM]
79	0.4	1.3	0.9	C=CCCN(C)Cc1c[nH]c(=O)cc1-c1ccc2c(N[C@@](C)(CO)CCCC)nc(N)nc2c1 [Example 35]	–
34	0.6	1.4	1.5	CCCC[C@](C)(CO)Nc1nc(N)nc2cc(-c3cc(=O)[nH]cc3CN(C)CCOC)cnc12 [Example 21]	> 30
63	0.8	2.0	2.0	CCCCN(C)Cc1c[nH]c(=O)cc1-c1cnc2c(N[C@@](C)(CO)CCCC)nc(N)nc2c1 [Example 28, (R)-4-(2-Amino-4-((1-hydroxy-2-methylhexan-2-yl)amino)pyrido[3,2-d]pyrimidin-7-yl)-5-((butyl(methyl)amino)methyl)pyridin-2(1H)-one]	> 30
42	0.7	0.6	−1.5	CCCC[C@](C)(CO)Nc1nc(N)nc2cc(-c3cc(=O)n(C)cc3CN3CCCCC3)ccc12 [Example 8]	> 30
